# Results from patent US20050287085A1, “Composition for improving the physico-chemical properties of apatite-based materials, uses thereof and method using same” (DENTSPLY INTERNATIONAL INC., priority 2002, published 2005).
# Test: Substitution in treated hydroxyapatite, mass spectrometry
# Text: The analysis of the samples of treated hydroxyapatite is continued by mass spectrometry. The percentage of calcium substituted by titanium and the percentage of hydroxyl groups substituted by fluorine are compared with those obtained after bringing the hydroxyapatite into contact with the sodium fluoride solution.
smiles,measurement,value
"[F-].[Na+] [NaF, Sodium fluoride]",Substitution of Ca by Ti,0.3%
same,Substitution of OH by F,52.0%
